Assay results: ChEMBL document CHEMBL1201862, “PubChem BioAssay data set” (2004)
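Dose response: 5 concentrations. Exposure: 48 h. Format: 96-well plates. Endpoint: linear interpolation; highest concentration if not reached. Abbreviation: GI50, concentration required for 50% inhibition of growth.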 Calls of active or inactive are those of the source. Rule as the data show it: active = GI50 up to about 1.1 µM and inactive = higher.

How the values were obtained:
Test in all cases: growth of human tumour cells (NCI), 48 h
A498 = system: A498
BT-549 = system: BT-549
DU-145 = system: DU-145
HCT-116 = system: HCT-116
HT-29 = system: HT-29
IGROV-1 = system: IGROV-1
KM12 = system: KM12
M14 = system: M14
MCF7 = system: MCF7
MDA-MB-231 = system: MDA-MB-231
MDA-N = system: MDA-N
Malme-3M = system: Malme-3M
NCI-H460 = system: NCI-H460
RXF 393 = system: RXF 393
SF-295 = system: SF-295
SK-MEL-2 = system: SK-MEL-2
SNB-19 = system: SNB-19
SNB-75 = system: SNB-75
U-251 = system: U-251
K562 = system: K562

Measured: GI50

O=C(O)CSc1ccc(N=C=S)cc1
inactive: A498 52.2 µM | BT-549 56.2 µM | DU-145 75.2 µM | HCT-116 64.3 µM | HT-29 > 100 µM | IGROV-1 > 100 µM | KM12 > 100 µM | M14 86.1 µM | MCF7 56 µM | MDA-MB-231 84.1 µM | MDA-N 54.1 µM | Malme-3M 27.4 µM | NCI-H460 56.9 µM | RXF 393 28.4 µM | SF-295 89.3 µM | SK-MEL-2 73.3 µM | SNB-19 > 100 µM | SNB-75 > 100 µM | U-251 72.3 µM

N#CC1=C2SCCN2C(=O)C(C#N)C12CCCCC2 (stereo not given)
inactive: A498 > 100 µM | BT-549 > 100 µM | DU-145 > 100 µM | HCT-116 > 100 µM | HT-29 > 100 µM | IGROV-1 > 100 µM | K562 > 100 µM | KM12 > 100 µM | M14 > 100 µM | MCF7 > 100 µM | MDA-MB-231 > 100 µM | MDA-N > 100 µM | Malme-3M > 100 µM | NCI-H460 > 100 µM | RXF 393 59.4 µM | SF-295 > 100 µM | SK-MEL-2 > 100 µM | SNB-19 > 100 µM | SNB-75 > 100 µM | U-251 > 100 µM

Cc1ccc(S(=O)ON2CCC(C(=O)O)(c3ccccc3)CC2)cc1 (stereo not given)
inactive: A498 > 100 µM | BT-549 > 100 µM | DU-145 > 100 µM | HCT-116 > 100 µM | HT-29 > 100 µM | IGROV-1 > 100 µM | K562 > 100 µM | KM12 > 100 µM | M14 > 100 µM | MCF7 > 100 µM | MDA-MB-231 > 100 µM | MDA-N > 100 µM | Malme-3M > 100 µM | NCI-H460 > 100 µM | RXF 393 > 100 µM | SF-295 > 100 µM | SNB-19 > 100 µM | SNB-75 > 100 µM | U-251 > 100 µM

S=c1sscc1N1CCSc2ssc(=S)c21
inactive: A498 32.1 µM | BT-549 37 µM | DU-145 21.8 µM | HCT-116 87.1 µM | HT-29 > 100 µM | IGROV-1 21.1 µM | K562 > 100 µM | KM12 > 100 µM | M14 > 100 µM | MCF7 32.7 µM | MDA-MB-231 30.1 µM | MDA-N > 100 µM | Malme-3M > 100 µM | NCI-H460 > 100 µM | RXF 393 47.3 µM | SK-MEL-2 78.2 µM | SNB-19 18.8 µM | SNB-75 14.5 µM | U-251 13.8 µM

Cc1cc(-n2nnc(C(=O)O)c2-c2ccccc2)c2ccc(Cl)cc2n1
inactive: A498 > 100 µM | BT-549 > 100 µM | DU-145 > 100 µM | HCT-116 > 100 µM | HT-29 > 100 µM | IGROV-1 > 100 µM | K562 58.1 µM | KM12 > 100 µM | M14 > 100 µM | MCF7 > 100 µM | MDA-MB-231 > 100 µM | MDA-N > 100 µM | Malme-3M > 100 µM | NCI-H460 > 100 µM | RXF 393 > 100 µM | SF-295 > 100 µM | SK-MEL-2 > 100 µM | SNB-19 > 100 µM | SNB-75 > 100 µM | U-251 > 100 µM

CCCCN(C)C(=O)C1=C(C)NC(C)=C(C(=O)N(C)CCCC)C1
inactive: A498 > 100 µM | BT-549 > 100 µM | DU-145 > 100 µM | HCT-116 > 100 µM | HT-29 > 100 µM | IGROV-1 > 100 µM | K562 54.3 µM | KM12 > 100 µM | M14 > 100 µM | MCF7 > 100 µM | MDA-MB-231 > 100 µM | MDA-N > 100 µM | NCI-H460 > 100 µM | RXF 393 > 100 µM | SF-295 > 100 µM | SK-MEL-2 > 100 µM | SNB-19 > 100 µM | SNB-75 50.7 µM | U-251 > 100 µM

N#Cc1c(C#N)c(-c2ccccc2)n(/N=C\c2ccccc2)c1N
inactive: A498 23.8 µM | BT-549 18.7 µM | DU-145 35.2 µM | HCT-116 29.4 µM | HT-29 26.1 µM | IGROV-1 15.6 µM | K562 13.2 µM | KM12 26.9 µM | M14 24.8 µM | MCF7 11.8 µM | MDA-MB-231 16 µM | MDA-N 36.1 µM | Malme-3M 29.9 µM | RXF 393 17.9 µM | SF-295 7.4 µM | SK-MEL-2 22.2 µM | SNB-19 30.8 µM | SNB-75 19.1 µM | U-251 16.5 µM

CC(C)CC1C(=O)OC(C)(C)OC1=O
inactive: A498 > 100 µM | BT-549 > 100 µM | DU-145 > 100 µM | HCT-116 > 100 µM | HT-29 > 100 µM | IGROV-1 > 100 µM | K562 > 100 µM | KM12 > 100 µM | M14 > 100 µM | MCF7 > 100 µM | MDA-MB-231 > 100 µM | MDA-N > 100 µM | NCI-H460 > 100 µM | RXF 393 > 100 µM | SF-295 > 100 µM | SK-MEL-2 > 100 µM | SNB-19 > 100 µM | SNB-75 > 100 µM | U-251 > 100 µM

Cc1ccsc1/C=N/NC1=NCCN1
inactive: A498 > 100 µM | BT-549 > 100 µM | DU-145 > 100 µM | HCT-116 > 100 µM | HT-29 > 100 µM | IGROV-1 > 100 µM | K562 > 100 µM | KM12 > 100 µM | M14 > 100 µM | MCF7 > 100 µM | MDA-MB-231 > 100 µM | MDA-N > 100 µM | Malme-3M > 100 µM | RXF 393 > 100 µM | SF-295 55.3 µM | SK-MEL-2 > 100 µM | SNB-19 > 100 µM | SNB-75 > 100 µM | U-251 > 100 µM

CC(C)(Oc1ccc(C2C[C@H]2Cl)cc1)C(=O)O (stereo not given in full)
inactive: A498 > 100 µM | BT-549 > 100 µM | DU-145 > 100 µM | HCT-116 > 100 µM | IGROV-1 > 100 µM | K562 > 100 µM | KM12 > 100 µM | MCF7 > 100 µM | MDA-MB-231 > 100 µM | MDA-N > 100 µM | NCI-H460 > 100 µM | RXF 393 > 100 µM | SF-295 > 100 µM | SK-MEL-2 > 100 µM | SNB-19 > 100 µM | SNB-75 > 100 µM | U-251 > 100 µM
